From ChEMBL document CHEMBL3813627, “Preventive effect of a novel diosgenin derivative on arterial and venous thrombosis in vivo” (Bioorg Med Chem Lett, 2016) come the findings set out here.

In data set [1] the test system is Mus musculus. Nature of the data set: Toxicity in Balb/c mouse assessed as white blood cell count at 66.2 mg/kg, ig bid for 7 days (reference value: 7.7 +/- 0.65 10^9/L). In kind it is organism-based. The following applies: in vivo, po, 168 h.
For data set [2], the system named is Mus musculus. The data set is described as follows: Toxicity in Balb/c mouse assessed as hemoglobin count at 66.2 mg/kg, ig bid for 7 days (reference value: 143 +/- 11.9 g/L). In kind it is organism-based. The following applies: in vivo, po, 168 h.
Data set [3] has as its system Mus musculus. The data set is described as follows: Toxicity in Balb/c mouse assessed as hematocrit at 66.2 mg/kg, ig bid for 7 days (reference value: 40.5 +/- 3.5 %). In kind it is organism-based. The following applies: in vivo, po, 168 h.
Data set [4] is filed under the species Rattus norvegicus. Nature of the data set: Gastric toxicity in Sprague-Dawley rat assessed as gastric mucosal damage score treated for 49 days by hematoxylin and eosin staining based microscopic analysis. The following applies: in vivo, 1176 h. In kind it is organism-based, Gastric mucosa.
Data set [5] is filed under the species Rattus norvegicus. The data set is described as follows: Gastric toxicity in Sprague-Dawley rat assessed as angiogenesis treated for 49 days by hematoxylin and eosin staining based microscopic analysis. To be noted: in vivo, 1176 h. In kind it is organism-based.
Data set [6] is filed under the species Rattus norvegicus. The data set is described as follows: Gastric toxicity in Sprague-Dawley rat assessed as fibrotic changes treated for 49 days by hematoxylin and eosin staining based microscopic analysis. In kind it is organism-based. To be noted: in vivo, 1176 h.
The test system of data set [7] is Rattus norvegicus. The data set is described as follows: Antiplatelet activity in platelet-rich plasma isolated from Sprague-Dawley rat assessed as ADP-induced platelet aggregation at 46 mg/kg, ig bid for 7 days measured for 5 mins by light transmission aggregometry (reference value: 57.57 +/- 2.43 %). In kind it is functional.
Data set [8] deals with Rattus norvegicus. Nature of the data set: Anticoagulant activity in platelet-rich plasma isolated from Sprague-Dawley rat assessed as activated partial thromboplastin time at 46 mg/kg, ig bid for 7 days (reference value: 17.6 +/- 0.92 secs). In kind it is functional.
The test system of data set [9] is Rattus norvegicus. Nature of the data set: Anticoagulant activity in platelet-rich plasma isolated from Sprague-Dawley rat assessed as prothrombin time at 46 mg/kg, ig bid for 7 days (reference value: 11.6 +/- 0.98 secs). In kind it is functional.
Data set [10] relates to Rattus norvegicus. The data set is described as follows: Anticoagulant activity in platelet-rich plasma isolated from Sprague-Dawley rat assessed as thrombin time at 46 mg/kg, ig bid for 7 days (reference value: 47.1 +/- 3.1 secs). In kind it is functional.
For data set [11], the system named is Mus musculus. The data set is described as follows: Toxicity in Balb/c mouse assessed as red blood cell count at 66.2 mg/kg, ig bid for 7 days (reference value: 7.55 +/- 0.59 10^12/L). In kind it is organism-based. The following applies: in vivo, po, 168 h.
Data set [12] relates to Mus musculus. Nature of the data set: Toxicity in Balb/c mouse assessed as platelet count at 66.2 mg/kg, ig bid for 7 days (reference value: 802 +/- 74 10^9/L). In kind it is organism-based. The following applies: in vivo, po, 168 h.
Data set [13] deals with Mus musculus. The data set is described as follows: Toxicity in Balb/c mouse assessed as white blood cell count at 28.8 mg/kg, ig bid for 7 days (reference value: 7.7 +/- 0.65 10^9/L). In kind it is organism-based. To be noted: in vivo, po, 168 h.
The subject of data set [14] is Mus musculus. The data set is described as follows: Toxicity in Balb/c mouse assessed as hemoglobin count at 28.8 mg/kg, ig bid for 7 days (reference value: 143 +/- 11.9 g/L). In kind it is organism-based. The following applies: in vivo, po, 168 h.
Data set [15] concerns Mus musculus. The data set is described as follows: Toxicity in Balb/c mouse assessed as hematocrit at 28.8 mg/kg, ig bid for 7 days (reference value: 40.5 +/- 3.5 %). In kind it is organism-based. To be noted: in vivo, po, 168 h.
For data set [16], the system named is Rattus norvegicus. The data set is described as follows: Anticoagulant activity in platelet-rich plasma isolated from Sprague-Dawley rat assessed as activated partial thromboplastin time at 20 mg/kg, ig bid for 7 days (reference value: 17.6 +/- 0.92 secs). In kind it is functional.
Data set [17] concerns Rattus norvegicus. Nature of the data set: Antiplatelet activity in platelet-rich plasma isolated from Sprague-Dawley rat assessed as ADP-induced platelet aggregation at 20 mg/kg, ig bid for 7 days measured for 5 mins by light transmission aggregometry (reference value: 57.57 +/- 2.43 %). In kind it is functional.
Data set [18] relates to Rattus norvegicus. The data set is described as follows: Anticoagulant activity in platelet-rich plasma isolated from Sprague-Dawley rat assessed as prothrombin time at 20 mg/kg, ig bid for 7 days (reference value: 11.6 +/- 0.98 secs). In kind it is functional.
In data set [19] the test system is Rattus norvegicus. The data set is described as follows: Anticoagulant activity in platelet-rich plasma isolated from Sprague-Dawley rat assessed as thrombin time at 20 mg/kg, ig bid for 7 days (reference value: 47.1 +/- 3.1 secs). In kind it is functional.
The test system of data set [20] is Rattus norvegicus. The data set is described as follows: In vivo activation of coagulation factor8 in Sprague-Dawley rat at 20 mg/kg, ig bid for 7 days by automated coagulometry. In kind it is functional, organism-based.
Data set [21] has as its system Rattus norvegicus. The data set is described as follows: In vivo activation of coagulation factor9 in Sprague-Dawley rat at 20 mg/kg, ig bid for 7 days by automated coagulometry. In kind it is functional, organism-based.
In data set [22] the test system is Rattus norvegicus. The data set is described as follows: In vivo activation of coagulation factor10 in Sprague-Dawley rat at 20 mg/kg, ig bid for 7 days by automated coagulometry. In kind it is functional, organism-based.
The subject of data set [23] is Rattus norvegicus. The data set is described as follows: In vivo activation of coagulation factor11 in Sprague-Dawley rat at 20 mg/kg, ig bid for 7 days by automated coagulometry. In kind it is functional, organism-based.
In data set [24] the test system is Rattus norvegicus. Nature of the data set: In vivo activation of coagulation factor12 in Sprague-Dawley rat at 20 mg/kg, ig bid for 7 days by automated coagulometry. In kind it is functional, organism-based.
In data set [25] the test system is Rattus norvegicus. The data set is described as follows: Anti-thrombotic activity in Sprague-Dawley rat model of FeCl3-induced arterial thrombosis assessed as reduction in arterial thrombus length at 20 mg/kg, ig bid for 7 days by vernier caliper method. In kind it is functional, organism-based.
Data set [26] deals with Rattus norvegicus. The data set is described as follows: Anti-thrombotic activity in Sprague-Dawley rat model of FeCl3-induced arterial thrombosis assessed as reduction in arterial thrombus weight at 20 mg/kg, ig bid for 7 days. In kind it is functional, organism-based.
Data set [27] has as its system Rattus norvegicus. The data set is described as follows: Anti-thrombotic activity in Sprague-Dawley rat model of FeCl3-induced venous thrombosis assessed as reduction in venous thrombus length at 46 mg/kg, ig bid for 7 days by vernier caliper method. In kind it is functional, organism-based.
Data set [28] deals with Rattus norvegicus. The data set is described as follows: Anti-thrombotic activity in Sprague-Dawley rat model of FeCl3-induced venous thrombosis assessed as reduction in venous thrombus weight at 46 mg/kg, ig bid for 7 days. In kind it is functional, organism-based.
Data set [29] deals with Mus musculus. Nature of the data set: Toxicity in Balb/c mouse assessed as tail bleeding time at 28.8 mg/kg, ig bid for 7 days (reference value: 186 +/- 12 sec). To be noted: in vivo, po. In kind it is organism-based.
Data set [30] has as its system Mus musculus. Nature of the data set: Toxicity in Balb/c mouse assessed as red blood cell count at 28.8 mg/kg, ig bid for 7 days (reference value: 7.55 +/- 0.59 10^12/L). The following applies: in vivo, po, 168 h. In kind it is organism-based.
The test system of data set [31] is Mus musculus. The data set is described as follows: Toxicity in Balb/c mouse assessed as platelet count at 28.8 mg/kg, ig bid for 7 days (reference value: 802 +/- 74 10^9/L). In kind it is organism-based. The following applies: in vivo, po, 168 h.

Each structure is given as a SMILES string. The source made the active and inactive calls. The rule behind the calls is not given here. A value given as a limit tells only on which side of the number the result lay.

As to `C[C@@H]1CC[C@@]2(OC1)O[C@H]1C[C@H]3[C@@H]4CC=C5C[C@@H](O)CC[C@]5(C)[C@H]4CC[C@]3(C)[C@H]1[C@@H]2C` [DISOGENIN], the Activity is 7.99 ×10⁹ /L in data set [1]; 137 g/L in data set [2]; 39.4% in data set [3]; “Non-toxic” in [5]; “Non-toxic” in [6]; 49.14% in data set [7]. For the same compound, the Activity was determined as 7.45 ×10¹² /L in [11] and 788 ×10⁹ /L in data set [12]. Besides, the UI in [4] stood at 1.33. For the same compound, the APTT in data set [8] is 19.2 s. Further, the PT in [9] came out at 15.2 s. In addition, the TT in data set [10] is recorded as 53.2 s.
With `CC(=O)Oc1ccccc1C(=O)O` [ASPIRIN], the Activity in data set [13] was 7.84 ×10⁹ /L; in data set [14], 150 g/L; in data set [15], 43.8%; in data set [5] it was “Toxic”; in data set [6], “Toxic”; in [17], 28.85%. In addition, the Activity is on record as 7.62 ×10¹² /L in data set [30] and 651 ×10⁹ /L in [31]. Also, the UI in data set [4] amounted to 20.66. Besides, in [16], the APTT is reported as 18 s. The PT in data set [18] was found to be 10.5 s. For the same compound, the TT in data set [19] amounted to 45.3 s. The outcome in data set [20], in [21], in data set [22], in data set [23] and in data set [24] was inactive. The outcome in data set [25], in [26], in data set [27] and in data set [28] was Active. In addition, in data set [29], the Time was over 900 s.
